The series in a line: antagonism to adrenaline-induced toxicity. The following applies: mouse, in vivo, ip; adrenaline (tartrate) intraperitoneally, mice; mortality 36 hours; read-out: LD50 (fiducial limits for 95%) of adrenaline alone. The format is in vivo, male albino Swiss mice. The protocol: The antagonism to adrenaline-induced toxicity was also investigated with the following results. Groups of ten male albino Swiss mice were injected with adrenaline (tartrate) intraperitoneally at progressive logarithmic doses. Other similar groups of animals were injected with 250 mg/kg of the compounds under examination via the same route, 30 minutes before adrenaline administration. Mortality was assessed by means of the Litchfield and Wilcoxon method 36 hours after adrenaline administration.

SMILES strings stand for the structures.

As a reminder, the LD50 is the dose at which mortality reaches 50%. As for `CNCC(O)c1ccc(O)c(O)c1` (stereo not shown) [Adrenaline, reference compound], the LD50 at 36 h was 27.7 mg/kg.
